# Laboratory results taken from PMC12715507, “CARF-HAD phosphatase effectors provide immunity during the type III-A CRISPR–Cas response” (Nucleic Acids Research, 2025).
# Biological target: T1, BbChp
# T1 construct: CARF domain (307–528), N-terminal 6xHis
# Experiment: thermal shift assay (DSF) titration, Tm […] to […] °C
# Format: binding, Bacteroidales bacterium
smiles,measurement,value
Nc1ncnc2c1ncn2[C@@H]1O[C@@H]2COP(=O)(O)O[C@H]3[C@@H](O)[C@H](n4cnc5c(N)ncnc54)O[C@@H]3COP(=O)(O)O[C@H]3[C@@H](O)[C@H](n4cnc5c(N)ncnc54)O[C@@H]3COP(=O)(O)O[C@H]3[C@@H](O)[C@H](n4cnc5c(N)ncnc54)O[C@@H]3COP(=O)(O)O[C@H]2[C@H]1O [cA4],Kd,273 nM
